Blank lines part the entries; values can stand above or below the molecule they belong to.
Assays:
[1] = test system: LPS-induced pulmonary neutrophil infiltration; assay: LPS-induced pulmonary neutrophil infiltration in ferrets; assay type: in vivo; settings: for inhibition of LPS-induced neutrophilia: powder with lactose, 2 hours before LPS
Experimental: The inhibition of lipopolysaccharide (LSP)-induced pulmonary neutrophil infiltration by the substance is investigated in an in vivo test on male ferrets (0.6-2 kg). The experimental animals are anaesthetized with pentobarbital sodium (40 mg/kg of body weight i.p.), placed individually into a closed nebulization box of 5 l capacity and exposed to an ultrasonically nebulized aerosol of 0.01% strength LPS (lipopolysaccharide) solution (additionally 0.1% hydroxylamine in PBS) for 10 minutes. The aerosol is generated by a nebulizer driven with compressed air (0.2 Mpa). Control animals are treated with an aerosol of physiological saline solution. The animals are observed during the entire process and removed from the nebulization box after admission of fresh air. On inhalation, nebulized LPS immediately induces inflammation of the airways, which is characterized by a massive infiltration of neutrophilic granulocytes into the lungs of the experimental animals. The neutrophilia achieves its maximum 4 to 6 hours after LPS exposure. In order to be able to measure the number of infiltrated neutrophilic granulocytes, the animals are anaesthetized with an overdose of ethylurethane (1.5 g/kg of body weight i.p.) 6 hours after LPS provocation and a bronchoalveolar lavage (BAL) is carried out using 2×10 ml of physiological saline solution. The number of cells in the pooled original BAL fluid (100 μl) are determined using the automatic cell-counting apparatus sold by Bayer Diagnostic under the trade designation Technicon HIE and the different leucocytes per μl are differentiated. In each test, 2 control groups (nebulization with physiological saline solution or with LPS solution) are included. Substances having anti-inflammatory activity, particularly those which affect TNFα release or the function of the neutrophilic granulocytes, inhibit the infiltration of leucocytes. The inhibition of infiltration is determined by the comparison of the number of infiltrated neutrophils in untreated experimental animals (with and without LPS provocation).
For intrapulmonary administration, the trachea of the animals is opened under anaesthesia with 40 mg/kg i.p. of pentobarbital sodium, 3% strength, 1.3 ml/kg, a 7 cm-long PVC catheter is tied in and the test substances are administered intrapulmonarily in powder form (mixed with lactose to 20 mg/kg) by means of a syringe 2 hours before LPS provocation. The intrapulmonary administration of Example 1 in doses of 1, 3 and 10 mg/kg inhibits LPS-induced neutrophilia in a dose-dependent manner (43%, 65% and 100%).

[2] = test system: LPS-induced TNFα release in human blood; assay: LPS-induced TNFα release in human blood; assay type: cell-based; settings: human blood diluted 1:5, LPS 10 μg/ml, 24 hours
From the text: The stimulation of isolated leucocytes to cytokine release can take place in various ways. Lipopolysaccharides (LPSs) are a stimulus suitable for the investigation of TNFα release. LPS is a constituent of the bacterial cell walls and is released by killing the bacteria (antibiotics or immune system). LPS particularly stimulates the activity of the phagocytizing leucocytes (tissue macrophages, granulocytes, monocytes) and causes the infiltration of leucocytes from the blood stream into the affected tissue. A cytokine important for these mechanisms is TNFα, which is secreted in large amounts by the affected cells (the monocytes and macrophages are the main source) and initiates and maintains inflammation alongside other mediators.
For the investigation of the effect on LPS-induced TNFα release, human blood was obtained from various donors (inhibition of coagulation by means of citrate) and diluted 1:5 with RPMI 1640 cell culture medium. The test substances were added to the samples in various concentrations before the LPS challenge. […] After incubation of the test batches for 24 hours at 37° C. and under 5% CO2 in an incubator, the diluted blood was centrifuged and the TNFα concentration in the cell-free supernatant was measured by means of ELISA.

[3] = test system: LPS-induced pulmonary neutrophilia; assay: LPS-induced pulmonary neutrophilia in domestic pigs; assay type: in vivo; settings: intrapulmonary administration of 10 mg/animal
Experimental: Pulmonary neutrophilia can be induced with LPS in domestic pigs in a manner similar to that in the ferret. The animals are anaesthetized with pentobarbital 10 mg/kg i.v., and intubated. Using a bronchoscope, a partial bronchoalveolar lavage is carried out in order to determine the proportion of neutrophilic granulocytes under physiological conditions. The test substance is then administered and the animals inhale an ultrasonically nebulized aerosol of 0.03% strength LPS (lipopolysaccharide) solution (additionally 0.1% hydroxylamine in PBS) through the tracheal tube for 20 min. The inhaled LPS induces a reactive inflammation of the airways and neutrophilic granulocytes infiltrate on a huge scale. The neutrophilia achieves its maximum 4 to 6 hours after LPS exposure. After 6 hours, the bronchoalveolar lavage is repeated and the increase in the neutrophil count is determined arithmetically.

Structure (SMILES): O=C(Nc1c(Cl)cc(OC(F)(F)F)cc1Cl)C(=O)c1cn(Cc2ccc(F)cc2)c2ccc(O)cc12
melting point: 176 to 178 °C

Structure (SMILES): O=C(Nc1c(Cl)cccc1Cl)C(=O)c1cn(Cc2ccc(F)cc2)c2ccc(O)cc12
melting point: 216 to 218 °C

Structure (SMILES): COc1ccc(Cn2cc(C(=O)Nc3c(Cl)cncc3Cl)c3cc(O)ccc32)cc1
melting point: 239 to 241 °C

Structure (SMILES): COc1ccc(C(=O)Nc2c(Cl)cncc2Cl)cc1OC1CCCC1 [RPR-73401, reference compound]
inhibition of neutrophilia in the BAL ([1]; 1 mg/kg i.p.): 49%

Structure (SMILES): COc1ccc([C@]2(C#N)CC[C@@H](C(=O)O)CC2)cc1OC1CCCC1 [SB 207499, reference compound]
IC50 [2]: 7 µM

Structure (SMILES): O=C(Nc1c(Cl)cncc1Cl)C(=O)c1cn(Cc2c(F)cccc2F)c2ccc(O)cc12
melting point: 266 to 268 °C

Structure (SMILES): O=C(Nc1c(Cl)cc(C(F)(F)F)cc1Cl)C(=O)c1cn(Cc2ccc(F)cc2)c2ccc(O)cc12
melting point: 199 to 201 °C

Structure (SMILES): O=C(Nc1c(Cl)cncc1Cl)C(=O)c1cn(Cc2ccc(F)cc2)c2cc(O)ccc12
melting point: 212 to 213 °C

Further lines, with some results ahead:

melting point: 246 to 248 °C
Structure (SMILES): O=C(Nc1c(Cl)cncc1Cl)C(=O)c1cn(CC2CCCC2)c2ccc(O)cc12

IC50 [2]: 0.8 µM
Structure (SMILES): O=C(Nc1c(Cl)cncc1Cl)C(=O)c1cn(Cc2ccc(F)cc2)c2ccc(O)cc12 [Example 1, N-(3,5-Dichloropyridin-4-yl)-2-[1-(4-fluorobenzyl)-5-hydroxyindol-3-yl]-2-oxoacetamide]
inhibition of neutrophilia in the BAL ([1]; 1 mg/kg i.p.): 18%
inhibition of LPS-induced neutrophilia ([1]; 1 mg/kg intrapulmonary): 43%
inhibition of neutrophilia in the BAL ([1]; 3 mg/kg i.p.): 64%
inhibition of LPS-induced neutrophilia ([1]; 3 mg/kg intrapulmonary): 65%
inhibition of neutrophilia in the BAL ([1]; 10 mg/kg i.p.): 78%
inhibition of LPS-induced neutrophilia ([1]; 10 mg/kg intrapulmonary): 100%
ID50, inhibition of LPS-induced neutrophilia in BAL ([1]; i.p., 2 hours before LPS provocation): 2.4 mg/kg
ID50, inhibition of LPS-induced neutrophilia ([1]; intrapulmonary administration (printed i.palm.)): 1.65 mg/kg
inhibition of LPS-induced pulmonary neutrophilia [3]: 51%

melting point: 280 to 282 °C
Structure (SMILES): CCCn1cc(C(=O)C(=O)Nc2c(Cl)cncc2Cl)c2cc(O)ccc21

melting point: 245 to 247 °C
Structure (SMILES): CC(C)n1cc(C(=O)C(=O)Nc2c(Cl)cncc2Cl)c2cc(O)ccc21

Source: US6613794B2, “Hydroxyindoles, their use as inhibitors of phosphodiesterase 4 and processes for their preparation” (Arzneimittelwerk Dresden GmbH, priority 1998, dated 2003)
